These results are taken from patent US7598291B2, “Methods and compositions for enhancing collagen and proteoglycan synthesis in the skin” (priority 2004, dated 2009).

For series [1] the following is noted: topical application, hairless mice; reduced in the process to dihydrolipoic acid; cited from earlier work.
The subject of series [2] is skin fibroblasts. The experiment in a line: Collagen synthesis in vitro (radioproline incorporation) in skin fibroblasts. Format: cell-based, human. The following applies: lipoic acid 0 to 5 μg/ml (FIG. 5), proanthocyanidin vs control (FIG. 6). On the procedure:
Rat skin fibroblasts and NIH 3T3 cells were used to measure collagen synthesis in vitro. Cells at a density of 100×10^3 in 24-well-plates were grown with 10% FBS/DMEM (Irvine Scientific, CA) supplemented with different doses of lipoic acid (0-16 μg/ml). Cells were incubated at 37° C. in a 5% CO2 environment for 24 hours. Medium was changed into labeling medium for another 24 hours (50 μCi/ml [^3H]proline, 25 μg/ml ascorbic acid, 25 μg/ml β-aminoproprionitrile (β-APN)). Collagen synthesis from cultured cells was assayed as previously described (B. Han et al. (2003), supra). Briefly, cells and medium were acidified with glacial acetic acid to a final concentration of 0.5 M and pepsin (Worthington) added to a final concentration of 0.5 mg/ml. Plates were shaken overnight at 4° C., collagen precipitated with 4.0 M NaCl and pellets washed with 20% cold ethanol 3 times. Pellets were dissolved with 0.5 M acetic acid and counted with a scintillation counter (Beckman)

In the next series the test system is lipid peroxidation. The following applies: old rats, diet supplemented with lipoic acid; cited from earlier work.
The next series deals with rat hepatocytes. The following applies: older rats, 2-week dietary supplementation prior to hepatocyte isolation; cited from earlier work.
Series [3] has as its system skin fibroblasts. In words: Cell proliferation assay (thymidine incorporation). In kind it is cell-based, human. The settings on record: vs control; FIG. 6. As for the experimental part: NIH 3T3 fibroblasts were cultured in DMEM containing 10% fetal bovine serum in 24-well plates at a density of 80×10^3. After overnight attachment, medium was changed to a conditioning medium with different dosages of lipoic acid (20 ng-20 μg). DNA content was assayed after 48 hours in culture. Briefly, cells were trypsinized with 0.25% trypsin-EDTA and pelleted by centrifugation. To the cell pellet, 1.5 ml of cold 10 mM EDTA (pH 12.3) was added to solubilize cells. After neutralizing with 1.0 M KH2PO4 (140 μl) and mixing with 0.5 ml of 100 mM NaCl/10 mM Tris (pH 7.0), 10 μl of 66.7 μg/ml Hoechst 33258 (Sigma) was added to give fluorescent readings at emissions of 350 nm and 450 nm. Cell numbers were obtained by comparing the reading to a standard curve of cellular DNA (1×10^4 to 1×10^6 fibroblast). [^3H]Thymidine incorporation into DNA was performed as previously described (B. Han et al., “Proanthocyanidin: A Natural Crosslinking Reagent for Stabilizing Collagen Matrices,” J. Biomed. Mater. Res. 65A: 118-24 (2003)).

Take `O=C(O)CCCC[C@@H]1CCSS1` (racemic) [lipoic acid, 1,2-dithiolane-3-pentanoic acid]: in series [1], the “penetration across the skin barrier” value is reported as “effectively penetrate across the skin barrier”.
With `O=C(O)CCCC[C@@H]1CCSS1` (stereo in doubt) [lipoic acid, 1,2-dithiolane-3-pentanoic acid], the “collagen synthesis in vitro (incorporation of radioproline)” value in the series with skin fibroblasts [2] is recorded as “increased”. Moreover, the “levels of malondialdehyde, an indicator of lipid peroxidation” value with lipid peroxidation was “reduced”. Moreover, the “age-associated effects on ascorbic acid metabolism” value in the series on rat hepatocytes is “almost completely reversed”.
For the compound proanthocyanidin, in the series on skin fibroblasts [2], the “collagen synthesis in vitro (incorporation of radioproline)” value is “increased”. The “cellular proliferation (incorporation of thymidine)” value with skin fibroblasts [3] was “increase in cellular proliferation”.
